According to patent US9045426B2, “Method for producing 1,2-dihydropyridine-2-one compound” (EISAI R&D MANAGEMENT CO., LTD., priority 2004, dated 2015):

What was measured:
[1] = Physical stability in mixing operation in the presence of water or water-ethanol (1:1) mixed solution; format: physicochemical; conditions: room temperature, then dried at about 60° C.
Description: Physical Stability in Mixing-Operation in the Presence of Water or Water-Ethanol (1:1) Mixed Solution
About 150 mg of respective crystals are placed in an agate mortar, and the mixing operation is carried out at room temperature for a few minutes while the dropwise addition of water (or water-ethanol (1:1) mixed solution) continues.
Subsequently, respective crystals are dried at about 60° C. for 2 to 3 hours.

[2] = Minimum ignition energy (blown-up type dust explosion test); format: physicochemical; conditions: 24° C., humidity 49%, dust concentration 1250 g/m^3
Description: (§1) Minimum Ignition Energy and Lower Explosion Concentration Limit
(§2) An appropriate amount of Hydrate crystal corresponding to a concentration was uniformly put on sample dish of blown-up type dust explosion test apparatus. 50 kPa of air was compressed in a 1.3 L pressure tank, and the air was introduced into a glass cylinder by opening of a solenoid operated valve to form dust clouds. A discharge electrode was supplied with energy after 0.1 seconds after the opening of the solenoid operated valve. The criterion of ignition is an arrival of flame at an ignition mark set 100 mm above the discharge electrode.
(3) Measurement Conditions for Minimum Ignition Energy
(§3) Temperature of the measurement room: 24° C.
(§4) Popping pressure of compressed air: 50 kPa
(§5) Ignition start time: 0.1 sec
Repetition of ignition test: 10 times
(§6) Blown-up type dust explosion test apparatus (Environmental Technology Co., Ltd. DES -10)

[3] = Lower explosion concentration limit (blown-up type dust explosion test); format: physicochemical; conditions: 24° C., humidity 49%, ignition discharge energy 10 J
Description: as §1, §2
(2) Measurement Conditions for Lower Explosion Concentration Limit
as §3, §4, §5
Repetition of ignition test: 5 times
Ignition discharge energy: 10 J
as §6

[4] = Influence of change in temperature on Hydrate crystal (powder X-ray diffraction); format: physicochemical; conditions: 30 to 100 to 30° C.; returns to Hydrate when the temperature was lowered
Description: (§7) Influence of Change in Temperature and Humidity on Hydrate Crystal
(§8) Rigaku X-ray DTA system: RINT-2000 manufactured by Rigaku Corporation
(§9) Crystals obtained in Example 5 (Hydrate crystal) were ground in a mortar and then sampled on a 13-mm diameter glass plate. Measurement was carried out under the conditions below.
Scanning range (2θ): 5 to 40°
Measurement temperature was changed as follows in turn and powder X-ray diffraction patterns were measured at the respective temperatures in sequence: 30→40→50→60→70→80→100→70→60→50→40 and 30° C.

[5] = Chargeability (static potential of the powder after stirring); format: physicochemical; conditions: about 1 g stirred for 30 minutes with fluoroplastic-coated stirring bar
Description: About 1 g of respective compounds is weighed into a weighing bottle (diameter of 35 mm). A stifling bar [fluoroplastic (tetrafluoroethylene resin) coating; 20 mm] is placed in the bottle and after the lid is in place, the powders are stirred for 30 minutes. The lid is opened at the same time that stirring is stopped; and the static potential of the powder is measured using a static potential measuring instrument.
STATIRON-DZ3 manufactured by Shishido Electrostatic, Ltd.

[6] = Influence of change in humidity on Hydrate crystal (powder X-ray diffraction); format: physicochemical; conditions: 4 to 90 to 5% RH
Description: as §7, §8, §9
Measurement humidity was changed as follows in turn and powder X-ray diffraction patterns were measured at the respective humidities in sequence: […]

[7] = test system: AMPA (alpha -amino-3-hydroxy-5-methyl-4-isoxazolepropionic acid) receptor; conditions: cited from earlier work

| Structure (SMILES) | change in crystal form during mixing operation (powder X-ray diffraction) [1] | static potential of the powder (chargeability) [5] | also measured |
| --- | --- | --- | --- |
| N#Cc1ccccc1-c1cc(-c2ccccn2)cn(-c2ccccc2)c1=O [Example 7, 3-(2-cyanophenyl)-5-(2-pyridyl)-1-phenyl-1,2-dihydropyridin-2-one] | no change in crystal form | – | – |
| N#Cc1ccccc1-c1cc(-c2ccccn2)cn(-c2ccccc2)c1=O.O [Example 5, 3-(2-cyanophenyl)-5-(2-pyridyl)-1-phenyl-1,2-dihydropyridin-2-one hydrate] | no change in crystal form | 0 V | Minimum Ignition Energy [2]: 50 to 100 mJ; Lower Explosion Concentration Limit [3]: 160-170 g/m^3; temperature at which Hydrate crystal transforms to Anhydrous crystal form III [4]: ≥ 60 °C; humidity under which crystals stay Hydrate crystal [6]: ≥ 10 % RH; humidity under which Hydrate crystal changes to Anhydrous crystal form III ([6]; reversible): ≤ 10 % RH |
| N#Cc1ccccc1-c1cc(-c2ccccn2)cn(-c2ccccc2)c1=O [Example 6, 3-(2-cyanophenyl)-5-(2-pyridyl)-1-phenyl-1,2-dihydropyridin-2-one] | no change in crystal form | – | – |
| N#Cc1ccccc1-c1cc(-c2ccccn2)cn(-c2ccccc2)c1=O [Compound (A), 3-(2-cyanophenyl)-5-(2-pyridyl)-1-phenyl-1,2-dihydropyridin-2-one] | – | – | antagonistic action against AMPA receptor [7]: significant antagonistic action |
| N#Cc1ccccc1-c1cc(-c2ccccn2)cn(-c2ccccc2)c1=O [Reference Example 1, 3-(2-cyanophenyl)-5-(2-pyridyl)-1-phenyl-1,2-dihydropyridin-2-one, reference compound] | underwent a change in crystal form | 70-100 V | – |
